Laboratory results published in DBAASP.
Values after ≈ are worked out from the molar mass of the structure shown.

Assays:
Assay in all cases: ≥ marks a high value that may be exact or a test limit, other limits are often not marked, values filed in µg/mL are converted to µM
[1] = test system: Batrachochytrium dendrobatidis
Mycobacterium avium = test system: Mycobacterium avium
[2] = test system: Escherichia coli ATCC 25922
[3] = test system: Listeria monocytogenes EGD
[4] = test system: Salmonella enterica serovar typhimurium MS7953s
Klebsiella pneumoniae = test system: Klebsiella pneumoniae
[5] = test system: Mycobacterium tuberculosis H37Rv
[6] = test system: Mycobacterium tuberculosis
[7] = test system: Acinetobacter baumannii ATCC 19606R
[8] = test system: Pseudomonas aeruginosa MR3007
[9] = test system: Enterococcus faecalis CDC 21
Escherichia coli ML-35p = test system: Escherichia coli ML-35p
[10] = test system: Streptococcus agalactiae ATCC 12386
Escherichia coli mcr106 = test system: Escherichia coli mcr106
[11] = test system: Pseudomonas aeruginosa ATCC 27853
[12] = test system: Staphylococcus aureus 28841
[13] = test system: Salmonella enterica subsp. enterica serovar Typhimurium ATCC 14028s
Escherichia coli BAS 849 = test system: Escherichia coli BAS 849
[14] = test system: Klebsiella pneumoniae ATCC 13883
[15] = test system: Pseudomonas aeruginosa SBI-N
[16] = test system: Staphylococcus aureus ATCC 25923
Enterococcus faecium = test system: Enterococcus faecium
[17] = test system: Enterococcus faecium 94-132
[18] = test system: Staphylococcus aureus ATCC 29213
[19] = test system: Staphylococcus aureus 930918-3
[20] = test system: Staphylococcus aureus 30371
[21] = test system: Pseudomonas aeruginosa MR2123
[22] = test system: Acinetobacter baumannii ATCC 19606
[23] = test system: Enterococcus faecalis ATCC 29212
Bacillus cereus = test system: Bacillus cereus
[24] = test system: Candida albicans ATCC 2002
Bacillus pumilus = test system: Bacillus pumilus
[25] = test system: Staphylococcus aureus ATCC 2592
Pseudomonas aeruginosa = test system: Pseudomonas aeruginosa
[26] = test system: Acinetobacter calcoaceticus
Shigella dysenteriae = test system: Shigella dysenteriae
Fusarium solani = test system: Fusarium solani
[27] = test system: Cryptococcus neoformans ATCC 208821
[28] = test system: Pseudomonas aeruginosa ATCC 9027
[29] = test system: Staphylococcus aureus USA 100
[30] = test system: Staphylococcus aureus USA 300
Fusarium oxysporum = test system: Fusarium oxysporum
[31] = test system: Acinetobacter baumannii b-02
[32] = test system: Acinetobacter baumannii b-03
[33] = test system: Acinetobacter baumannii b-04
[34] = test system: Acinetobacter baumannii b-01
[35] = test system: Psychrobacter faecalis X29
[36] = test system: Rhodococcus rhodochrous X15

## CC[C@H](C)[C@H](NC(=O)CN)C(=O)NCC(=O)N[C@@H](CCCCN)C(=O)N[C@@H](Cc1ccccc1)C(=O)N[C@@H](CC(C)C)C(=O)N[C@@H](Cc1c[nH]cn1)C(=O)N[C@@H](CO)C(=O)N[C@@H](C)C(=O)NCC(=O)N[C@@H](CCCCN)C(=O)N[C@@H](Cc1ccccc1)C(=O)NCC(=O)N[C@@H](CCCCN)C(=O)N[C@@H](C)C(=O)N[C@@H](Cc1ccccc1)C(=O)N[C@H](C(=O)NCC(=O)N[C@@H](CCC(=O)O)C(=O)N[C@H](C(=O)N[C@@H](CCSC)C(=O)N[C@@H](CCCCN)C(=O)N[C@@H](CO)C(=O)O)[C@@H](C)CC)C(C)C [GIGKFLHSAGKFGKAFVGEIMKS]
[1]
  MIC: ≥ 47 µM
Mycobacterium avium
  MIC: ≥ 53.1 µM
[2]
  MIC: 104 µM (≈ 250 µg/mL)
[3]
  MIC: 1.91 µM (≈ 4.6 µg/mL)
[4]
  MIC: 0.249 µM (≈ 0.6 µg/mL)
Klebsiella pneumoniae
  MIC: 0.747 µM (≈ 1.8 µg/mL)
[5]
  MIC: ≥ 498 µM
[6]
  MIC: ≥ 53.1 µM
[7]
  MIC: 26.6 µM (≈ 64 µg/mL)
[8]
  MIC: 0.207 µM (≈ 0.5 µg/mL)
[9]
  MIC: 3.03 µM (≈ 7.3 µg/mL)
Escherichia coli ML-35p
  MIC: 0.29 µM (≈ 0.7 µg/mL)
[10]
  MIC: 31.1 µM (≈ 75 µg/mL)
Escherichia coli mcr106
  MIC: 0.373 µM (≈ 0.9 µg/mL)
[11]
  MIC: > 207 µM
[12]
  MIC: ≥ 39.3 µM
[13]
  MIC: 0.498 µM (≈ 1.2 µg/mL)
Escherichia coli BAS 849
  MIC: 0.29 µM (≈ 0.7 µg/mL)
[14]
  MIC: ≥ 104 µM
[15]
  MIC: 0.166 µM (≈ 0.4 µg/mL)
[16]
  MIC: > 207 µM
Enterococcus faecium
  MIC: 1.66 µM (≈ 4 µg/mL)
[17]
  MIC: 1.16 µM (≈ 2.8 µg/mL)
[18]
  MIC: > 207 µM
[19]
  MIC: 9.13 µM (≈ 22 µg/mL)
[20]
  MIC: ≥ 83 µM
[21]
  MIC: 0.166 µM (≈ 0.4 µg/mL)
[22]
  MIC: 26.6 µM (≈ 64 µg/mL)
[23]
  MIC: > 207 µM

## CC[C@H](C)[C@H](NC(=O)[C@@H]1CCCN1C(=O)[C@H](Cc1ccccc1)NC(=O)[C@@H](N)Cc1ccccc1)C(=O)N[C@H](C(=O)NCC(=O)N[C@@H](CCCCN)C(=O)N[C@@H](CC(C)C)C(=O)N[C@@H](CC(C)C)C(=O)N[C@@H](Cc1ccccc1)C(=O)NCC(=O)N[C@@H](CC(C)C)C(=O)N[C@@H](CC(C)C)C(N)=O)C(C)C [FFPIVGKLLFGLL]
Bacillus cereus
  MIC: ≥ 51.2 µM
[2]
  MIC: 10.2 µM (≈ 15 µg/mL)
[24]
  MIC: 3.42 µM (≈ 5 µg/mL)
Bacillus pumilus
  MIC: 10.2 µM (≈ 15 µg/mL)
[25]
  MIC: 5.12 µM (≈ 7.5 µg/mL)
Pseudomonas aeruginosa
  MIC: 5.12 µM (≈ 7.5 µg/mL)
[26]
  MIC: ≥ 41 µM
Shigella dysenteriae
  MIC: 20.5 µM (≈ 30 µg/mL)

## NC(=O)[C@H](Cc1c[nH]c2ccccc12)NC(=O)[C@H](CCCN=C(N)N)NC(=O)[C@H](Cc1c[nH]c2ccccc12)NC(=O)[C@H](CCCN=C(N)N)NC(=O)[C@H](Cc1c[nH]c2ccccc12)NC(=O)[C@H](CCCN=C(N)N)NC(=O)[C@H](Cc1c[nH]c2ccccc12)NC(=O)[C@@H](N)CCCN=C(N)N [RWRWRWRW]
Fusarium solani
  MIC: 8 µM (≈ 11.1 µg/mL)
[27]
  MIC: 23.1 µM (≈ 32 µg/mL)
[28]
  MIC: 50 µM (≈ 69.3 µg/mL)
[29]
  MIC: 6.25 µM (≈ 8.67 µg/mL)
[30]
  MIC: 12.5 µM (≈ 17.3 µg/mL)
Fusarium oxysporum
  MIC: 16 µM (≈ 22.2 µg/mL)

## CC[C@H](C)[C@H](NC(=O)[C@H](Cc1ccccc1)NC(=O)[C@H](CO)NC(=O)[C@H](CCCCN)NC(=O)[C@H](Cc1c[nH]c2ccccc12)NC(=O)[C@@H](N)CCCCN)C(=O)N[C@@H](CCCCN)C(=O)N[C@@H](CCCCN)C(=O)N[C@@H](CC(C)C)C(=O)N[C@H](C(=O)N[C@@H](CO)C(=O)N[C@@H](CCCCN)C(=O)N[C@@H](Cc1ccccc1)C(=O)N[C@@H](CC(C)C)C(=O)N[C@@H](Cc1cnc[nH]1)C(=O)N[C@@H](CO)C(=O)N[C@@H](C)C(=O)N[C@@H](CCCCN)C(=O)N[C@@H](CCCCN)C(=O)N[C@@H](Cc1ccccc1)C(N)=O)[C@@H](C)O [KWKSFIKKLTSKFLHSAKKF]
[31]
  MIC: 2.55 µM (≈ 6.25 µg/mL)
[32]
  MIC: 2.55 µM (≈ 6.25 µg/mL)
Pseudomonas aeruginosa
  MIC: 1.27 µM (≈ 3.12 µg/mL)
[33]
  MIC: 1.27 µM (≈ 3.12 µg/mL)
[34]
  MIC: 1.27 µM (≈ 3.12 µg/mL)

## CC[C@H](C)[C@H](NC(=O)[C@H](C)NC(=O)[C@@H](NC(=O)[C@H](CC(=O)O)NC(=O)[C@H](CCCCN)NC(=O)[C@H](Cc1ccccc1)NC(=O)[C@@H](NC(=O)[C@H](CC(=O)O)NC(=O)[C@H](CC(C)C)NC(=O)[C@@H](NC(=O)CN)C(C)C)[C@@H](C)O)C(C)C)C(=O)NCC(=O)N[C@H](C(=O)N[C@@H](C)C(=O)N[C@@H](CCCCN)C(=O)NCC(=O)N[C@@H](C)C(=O)NCC(=O)N[C@H](C(=O)NCC(=O)N[C@H](C(=O)N[C@@H](CC(C)C)C(=O)N[C@@H](CCCCN)C(=O)N[C@@H](C)C(=O)N[C@@H](CC(C)C)C(=O)N[C@@H](CC(C)C)C(=O)N[C@H]1CSSC[C@@H](C(=O)O)NC(=O)[C@H](CO)NC(=O)[C@H](CCCCN)NC(=O)[C@H](CC(=O)O)NC(=O)[C@H](CC(C)C)NC(=O)[C@H](CCCCN)NC1=O)C(C)C)[C@@H](C)O)C(C)C [GVLDTFKDVAIGVAKGAGTGVLKALLCKLDKSC]
[35]
  MIC: 15 µM (≈ 49.3 µg/mL)
[25]
  MIC: ≥ 60 µM
[36]
  MIC: 30 µM (≈ 98.7 µg/mL)
